Holding throughout (test): NCI anticancer screen, dose series, 48 h
The subject of assay [1] is HCT-116 colon.
The test system of assay [2] is OVCAR-5 ovarian.
The test system of assay [3] is M14 melanoma.
Assay [4] has as its system SNB-75 CNS.
Assay [5] has as its system SF-268 CNS.
Assay [6] relates to ACHN renal.
Assay [7] deals with MDA-MB-435.
Assay [8] deals with NCI-H460 lung.
Assay [9] relates to TK-10 renal.
The test system of assay [10] is CAKI-1 renal.

“And” between values parts separate entries of the source, which are not always exact repeats. Equal values may be shown once.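 Where inhibition never reached the appropriate level, the endpoint shown equals the highest concentration tested. Otherwise, values were interpolated linearly from a five-concentration, 48-hour dose response in 96-well plates. Abbreviation: GI50, concentration required for 50% inhibition of growth. TGI: concentration producing complete growth inhibition.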

As for `COC(=O)c1ccccc1NC(=O)C(=O)CC(=O)c1ccccc1NC1=CC(=O)C(=O)c2ccccc21`, the TGI is 20 µM in [1]; 57.7 µM in [2]; 17.9 µM in assay [3]; 40.3 µM in [4]; 30.3 µM in [5]; 59.5 µM in assay [6]. For the same compound, the TGI in [7] was 8.59 µM; in [8] it was 65.4 µM; in assay [9], over 95.1 µM; in [10], 74.1 µM.

For `CN1CCN(c2ccc(-c3cnc4c(-c5csc6ccccc56)cnn4c3)cc2)CC1`, the GI50 was 3.15 µM in assay [1]; over 15 µM in assay [2]; 5.01 µM in [3]; over 15 µM in assay [4]; over 15 µM in [5]; 2.95 µM in [6]. In addition, the GI50 in [7] was 11.7 µM; in assay [8], 2.14 µM; in assay [9], 8.37 µM; in assay [10] it was 11.3 µM. Besides, the TGI is over 15 µM in assay [1]; over 15 µM in assay [2]; over 15 µM in assay [3]; over 15 µM in [4]; over 15 µM in assay [5]; 6.13 µM in assay [6]. The TGI in [7] was over 15 µM; in [8] it was 4.41 µM; in [9], over 15 µM; in assay [10] it was over 15 µM.

As to `COc1cc(-c2oc3c(OC)c(OC)cc(O)c3c(=O)c2OC)ccc1O`, the TGI in [1] was over 100 µM; in assay [2], over 50 µM; in assay [3], over 100 µM; in assay [4] it was 8.54 µM and > 5 µM; in assay [5], over 100 µM; in [7], over 50 µM. Also, the TGI was over 100 µM in assay [8]; 22.8 µM and 40.2 µM in assay [9]; over 50 µM in assay [10]. Further, the GI50 was 3 µM and 6.26 µM in [3]; 1.7 µM and > 5 µM in assay [4]; 34.4 µM and 15.3 µM in assay [5]; 1.84 µM and 4.71 µM in assay [6]; 4 µM and 8.51 µM in assay [8].

Turning to `O=C1c2cccnc2-c2nc(/C=C/c3ccccc3)cc3c2c1nc1ccccc13`, the GI50 in assay [1] was 1.95 µM; in assay [2], 11.8 µM; in assay [3], 1.73 µM; in assay [4] it was 2 µM; in assay [5], 2.24 µM; in [6] it was 1.94 µM. Moreover, the GI50 in [7] was 1.86 µM; in assay [8] it was 0.354 µM; in assay [9], 19.1 µM; in assay [10] it was 3.05 µM. Besides, the TGI in assay [1] was 6.14 µM; in assay [2], 25.4 µM; in [3], 3.58 µM; in [4], 8.06 µM; in assay [5] it was over 21.2 µM; in assay [6] it was 5.54 µM. Besides, the TGI in assay [7] amounted to 3.37 µM; in assay [8], 1.27 µM; in assay [9], 43.2 µM; in assay [10], 10.3 µM.

For the compound `O=C1C(Cl)=C(Nc2ccc3cn[nH]c3c2)C(=O)c2ccccc21`, the GI50 in assay [1] was 1.43 µM; in [2], 1.8 µM; in assay [3], 1.59 µM; in assay [4], 1.67 µM; in [5] it was 1.63 µM; in assay [6], 1.33 µM. Also, the GI50 in assay [7] was 1.51 µM; in [8], 1.7 µM; in [9], 3.79 µM; in assay [10], 1.47 µM. Also, the TGI came to 2.78 µM in [1]; 3.21 µM in assay [2]; 3.01 µM in assay [3]; 3.03 µM in [4]; 3 µM in assay [5]; 2.61 µM in assay [6]. In addition, the TGI came to 2.83 µM in [7], 4.14 µM in assay [8], 8.06 µM in assay [9] and 2.78 µM in assay [10].

Take `Cc1cc(=O)oc2cc(OC(=O)Nc3ccc(Cl)c(Cl)c3)ccc12`: the TGI was 40.7 µM in [1]; 61.9 µM in [2]; 50.9 µM in [3]; 67.3 µM in [4]; over 100 µM in assay [5]; 78.1 µM in assay [6]. Moreover, the TGI in [7] is 41.2 µM; in [8], 89.6 µM; in assay [9], over 100 µM; in assay [10], 86.4 µM.

`O=C1c2ccccc2S(=O)(=O)N1CSC(=S)N1CCCC1`: the GI50 in assay [1] is 63.8 µM; in assay [2], over 100 µM; in assay [3], over 100 µM; in [4], over 48 µM; in assay [5] it was over 100 µM; in [6] it was over 100 µM. Further, the GI50 in [7] is 99.7 µM; in assay [8], 45.4 µM; in assay [9], over 100 µM; in [10], over 100 µM. Also, the TGI in assay [1], in assay [2], in assay [3], in [4], in assay [5] and in assay [6] was over 100 µM each time. The TGI in [7], in [8], in [9] and in assay [10] was over 100 µM in each case.

Consider `CN(C)CCNC(=O)c1cccc2cc3ccccc3nc12`, for which the GI50 in assay [1] is 0.531 µM; in [2], 2.27 µM; in [3] it was 1.43 µM; in assay [4], 2.01 µM; in assay [5], 1.65 µM; in assay [6], 0.437 µM. The GI50 in [7] was 1.86 µM; in assay [8], 0.426 µM; in assay [9], 1.23 µM; in assay [10] it was 0.62 µM. Further, the TGI in assay [1] is 4.75 µM; in assay [2], over 24.3 µM; in [3], 3.29 µM; in assay [4], 6.22 µM; in [5] it was 8.18 µM; in assay [6] it was 2.85 µM. The TGI in assay [7] was found to be 6.67 µM; in assay [8], 1.98 µM; in [9], 4.08 µM; in assay [10], 3.14 µM.

Consider `COc1ccc2cc(C(=O)/C=C/c3cccc(Cl)c3Cl)ccc2c1`, for which the GI50 was 1 µM in assay [1]; 36.9 µM in assay [2]; 6.51 µM in [3]; 28.4 µM in assay [4]; 18.8 µM in assay [5]; 3.76 µM in assay [6]. Also, the GI50 in assay [7] was 1.44 µM; in [8], 10.1 µM; in assay [9], 18.6 µM; in [10], 5.6 µM. For the same compound, the TGI in assay [1] was 19.6 µM; in assay [2], 95.2 µM; in assay [3], over 100 µM; in [4] it was over 90.8 µM; in [5] it was over 92.2 µM; in assay [6], 33 µM. Besides, the TGI in assay [7] is 29.6 µM; in [8], over 100 µM; in assay [9], over 86.3 µM; in assay [10], 80.6 µM.

Source of the values: PubChem BioAssay (NCI).
